Assays:
[1] = test system: TRAF3; experiment: Renal TRAF3 (western blot), unilateral ureteral obstruction in mice; type: in vivo; conditions: paricalcitol 750 ng/kg/day i.p., studied after 5 days
Protocol: (§1) All animal procedures were performed according to the guidelines of animal research in the European Community and with prior approval by the Ethics Committee of the Health Research of the IIS-Fundacion Jiménez Díaz. For in vivo studies, mice received a daily intraperitoneal injection of the VDRA Paricalcitol starting 48 hours prior to induction of kidney damage.
(§2) At the time of sacrifice, animals were anesthetized with 5 mg/kg xylazine (Rompun, Bayer AG) and 35 mg/kg ketamine (Ketolar, Pfizer) and the kidneys perfused in situ with cold saline before removal. Then, kidney portions were fixed in formalin buffer for immunohistochemistry studies or immediately frozen in liquid nitrogen for gene and protein studies.
(§3) Unilateral ureteral obstruction (UUO) was established in male C57BL/6 mice, under isoflurane-induced anesthesia. […]
(§4) For western blot, cell (25 µg/lane) and kidney (100-150 µg/lane) protein extracts were separated on 6%-12% polyacrylamide-SDS gels under reducing conditions. […] Autoradiographs were scanned using the Gel Doc™ EZ imager and analyzed with the Image Lab 3.0 software (BioRad).

[2] = test system: NF-κB1; experiment: Canonical NF-κB1 activation in obstructed kidneys (UUO) in mice; type: in vivo; conditions: paricalcitol-treated obstructed kidneys (UUO); 750 ng/kg/day
Protocol: as §1, §2, §3, §4

[3] = test system: TWEAK-induced renal inflammation; experiment: TWEAK-induced renal inflammation in mice (immunohistochemistry, real time PCR, ELISA); type: in vivo, C57BL/6 mice; conditions: TWEAK-injected mice, paricalcitol 750 ng/kg/day or SN52 0.7 mg/mouse/day
Protocol: as §1
At the time of sacrifice, animals were anesthetized with 5 mg/kg xylazine (Rompun, Bayer AG) and 35 mg/kg ketamine (Ketolar, Pfizer) and the kidneys perfused in situ with cold saline before removal. […]
Paraffin-embedded kidney sections (3 µm) were stained using conventional methods. […] For each sample (processed by duplicate in a blinded manner), the average value was obtained from the analysis of 4 fields (20X objective) as density/mm2 or percentage stained area vs total analyzed area. Data are expressed as fold increase over control mice, as mean ± SEM of 8-10 animals per group. […]
ELISA was used to evaluate levels of the chemokines CCL2 and CCL5 (eBioscience). In renal samples, total protein content was determined by the BCA method, and equal amounts of protein were analyzed. Data are expressed as n-fold increase over the mean of control levels.
Total RNA was isolated from cells and mouse kidney samples with Trizol (Invitrogen). […] The mRNA copy numbers were calculated for each sample by the instrument software using Ct value. […]

C[C@H](/C=C/[C@H](C)C(C)(C)O)[C@H]1CC[C@H]2/C(=C/C=C3C[C@@H](O)C[C@H](O)C3)CCC[C@]12C [paricalcitol]
renal TRAF3 protein levels [1]: restored renal TRAF3 protein levels to values of control mice | NF-κB1 activation, evaluated by IκB-α phosphorylation and p65/NF-κB DNA binding activity [2]: not modified | proinflammatory factors, such as CCL2, CCL5 and IL-6 ([3]; kidney, real time PCR, ELISA): significantly decreased | infiltrating monocytes/macrophages (F4/80+ cells), T lymphocytes (CD3+ cells) ([3]; kidney immunohistochemistry): significantly decreased
